ChEMBL document CHEMBL4811226, “Species Prioritization Based on Spectral Dissimilarity: A Case Study of Polyporoid Fungal Species” (J Nat Prod, 2021)
The source made the active and inactive calls. No cut-off for these calls is given here.

Test system: HCT-116
Experiment: Cytotoxicity against human HCT-116 cells assessed as reduction in cell viability measured after 48 hrs by MTS assay
Assay type: functional, cell-based
Conditions: for IC50: HCT-116, 48 h

Row | Structure (SMILES) | Activity | IC50
1 | C=C1CC[C@H]2[C@](C)(COC(=O)[C@@H](CC(=O)O)[C@@H](OC[C@H]3C(=C)CC[C@H]4[C@](C)(CO)CCC[C@]34C)C(=O)OC)CCC[C@]2(C)[C@H]1CO[C@@H](C(=O)OC)[C@H](CC(=O)O)C(=O)OC | inactive | 
2 | C=C1CC[C@H]2[C@](C)(COC(=O)[C@@H](CC(=O)O)[C@@H](OC[C@H]3C(=C)CC[C@H]4[C@](C)(CO)CCC[C@]34C)C(=O)OC)CCC[C@]2(C)[C@H]1CO[C@@H](C(=O)OC)[C@H](CC(=O)O)C(=O)OC(C)C | inactive | 
3 | C=C1CC[C@H]2[C@](C)(COC(=O)[C@@H](CC(=O)O)[C@@H](OC[C@H]3C(=C)CC[C@H]4[C@](C)(COC(=O)[C@@H](CC(=O)O)[C@@H](OC[C@H]5C(=C)CC[C@H]6[C@](C)(CO)CCC[C@]56C)C(=O)OC)CCC[C@]34C)C(=O)OC)CCC[C@]2(C)[C@H]1CO[C@@H](C(=O)OC)[C@H](CC(=O)OC)C(=O)O | inactive | 
4 | C=C1CC[C@H]2C(C)(C)CCC[C@]2(C)[C@H]1CO[C@@H](C(=O)OC)[C@H](CC(=O)OC)C(=O)OC | inactive | 
5 | C=C1CC[C@H]2[C@](C)(COC(=O)[C@@H](CC(=O)OC)[C@@H](OC[C@H]3C(=C)CC[C@H]4[C@](C)(CO)CCC[C@]34C)C(=O)OC)CCC[C@]2(C)[C@H]1CO[C@@H](C(=O)OC)[C@H](CC(=O)O)C(=O)OC |  | 3.6 µM
6 | C=C1CC[C@H]2[C@@]3(C)CCC[C@]2(C)[C@H]1CO[C@@H](C(=O)OC)[C@H](CC(=O)O)C(=O)OC[C@]1(C)CCC[C@]2(C)[C@@H](CO[C@@H](C(=O)OC)[C@H](CC(=O)OC)C(=O)OC3)C(=C)CC[C@@H]12 | inactive | 
7 | C=C1CC[C@H]2[C@](C)(COC(=O)[C@@H](CC(=O)O)[C@@H](OC[C@H]3C(=C)CC[C@H]4[C@](C)(CO)CCC[C@]34C)C(=O)OC)CCC[C@]2(C)[C@H]1CO[C@@H](C(=O)OC)[C@H](CC(=O)OC)C(=O)OC |  | 4.3 µM
8 | C=C1CC[C@H]2[C@@]3(C)CCC[C@]2(C)[C@H]1CO[C@@H](C(=O)OC)[C@H](CC(=O)O)C(=O)OC[C@]1(C)CCC[C@]2(C)[C@@H](CO[C@@H](C(=O)OC)[C@H](CC(=O)O)C(=O)OC3)C(=C)CC[C@@H]12 | inactive | 
9 | C=C1CC[C@H]2[C@](C)(COC(=O)[C@@H](CC(=O)OC)[C@@H](OC[C@H]3C(=C)CC[C@H]4[C@](C)(CO)CCC[C@]34C)C(=O)OC)CCC[C@]2(C)[C@H]1CO[C@@H](C(=O)OC)[C@H](CC(=O)OC)C(=O)OC | inactive | 
